Data as given in patent publication US9682962B2, “Pyrazolyl pyrimidinamine compound and application thereof” (SHENYANG SINOCHEM AGROCHEMICALS R&D CO., LTD., priority 2013, dated 2017).

Legend:
wheat powdery mildew = test: Protectant activity in vivo (whole plant), wheat powdery mildew; conditions: protectant activity
corn rust = test: Protectant activity in vivo (whole plant), corn rust; conditions: 1.6 ppm
Experimental: The method is as followed: The whole plant is used in this test. The compound is dissolved in a proper solvent to get mother solution. The proper solvent is selected from acetone, methanol, DMF and so on according to their dissolving capability to the sample. […] The testing solution is sprayed to the host plant by a special plant sprayer. The plant is inoculated with fungus after 24 hours. According to the infecting characteristic of fungus, the plant is stored in a humidity chamber and then transferred into greenhouse after infection is finished. And the other plants are placed in greenhouse directly.

diamond back moth = test: Bioactivity test against diamond back moth (airbrush spray); type: in vivo
Experimental: (§1) Compounds were dissolved in mixed solvent (acetone:methanol=1:1), and diluted to required concentration with water containing 0.1% of tween 80.
(§2) Diamond back moth, armyworm, peach aphid and carmine spider mite were used as targets and the method of spraying by airbrush was used for determination of insecticidal bioassays.
The method of spraying by airbrush: The cabbage leaves were made into plates of 2 cm diameter by use of punch. A test solution (0.5 ml) was sprayed by airbrush at the pressure of 0.7 kg/cm^2 to both sides of every plate. 10 Second instar larvae were put into the petri-dishes after the leaf disc air-dried and 3 replicates were set for each treatment. Then the insects were maintained in observation room (25° C., 60˜70% R.H.). Scores were conducted and mortalities were calculated after 72 h.

[1] = system: Green peach aphids (Myzus Persicae Sulzer); test: Bioactivity test against green peach aphid (airbrush foliar spray); type: in vivo
carmine spider mite = test: Bioactivity test against carmine spider mite (airbrush spray); type: in vivo; conditions: 10 ppm, after 72 hrs
Experimental: as §1, §2
The method: shoots with two true leaves in pot were taken, the healthy adults of carmine spider mite were inoculated to the leaves. The adults were counted and then sprayed with airbrush at the pressure of 0.7 kg/cm^2 and at dose of 0.5 ml. 3 replicates were set for each treatment. And then they were maintained in standard observation room. Scores were conducted and mortalities were calculated after 72 hrs.

FC(F)c1ncnc(NCCc2cnn(-c3ccc(Cl)cc3Cl)c2)c1Cl [Compound 817]
control effect against wheat powdery mildew (%) (wheat powdery mildew; 6.25 mg/L): 100%
control effect against wheat powdery mildew (%) (wheat powdery mildew; 25 mg/L): 100%
control effect against wheat powdery mildew (%) (wheat powdery mildew; 100 mg/L): 100%
control effect against wheat powdery mildew (%) (wheat powdery mildew; 400 mg/L): 100%
protectant activity against corn rust in vivo (corn rust): 70%
Insecticidal activity against diamond back moth (%) (diamond back moth; 10 mg/L): 21%
Insecticidal activity against diamond back moth (%) (diamond back moth; 100 mg/L): 70%
Insecticidal activity against diamond back moth (%) (diamond back moth; 600 mg/L): 100%
control against diamond back moth (mortality) (diamond back moth; 600 ppm, after 72 h): 100%
Insecticidal activity against peach aphid (%) ([1]; 100 mg/L): 100%
Insecticidal activity against peach aphid (%) ([1]; 600 mg/L): 100%
control against carmine spider mite (mortality) (carmine spider mite): 72%
